Where two headings read alike, the source gives them in different places.
Legend:
[1] = tested on: small flower umbrella sedge; assay: Test B flooded paddy test; format: in vivo, Cyperus difformis; conditions: 1000 g ai/ha, visual rating, scale 0 to 100 (0 no effect, 100 complete control), 13 to 15 days
How it was run: (§1)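 Paddy species grown to the 2-leaf stage under flooding; blackgrass sprayed postemergence at 2–18 cm (1- to 4-leaf stage). Plants kept in a greenhouse for 13 to 15 days, then visually rated against controls on 0 (no effect) to 100 (complete control).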

Surinam grass = assay: Test B pre-/postemergence herbicide test; format: in vivo, Urochloa decumbens; conditions: for pest or weed control at 125 g/ha / pest or weed control at 500 g/ha: Urochloa decumbens; for pest or weed control at 125 g/ha: 125 g ai/ha; for pest or weed control at 500 g/ha: 500 g ai/ha
How it was run: (§2)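 Evaluation is visual, comparing treated with control plants on a scale where 0 means no effect and 100 means full control. Treatments were preemergence, or postemergence on seedlings 2–18 cm tall, and held 13–15 days in the greenhouse.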

pigweed = assay: Test B pre-/postemergence herbicide test; format: in vivo, Amaranthus retroflexus; conditions: for pest or weed control at 125 g/ha / pest or weed control at 500 g/ha: Amaranthus retroflexus, 336 h; for pest or weed control at 125 g/ha: 125 g ai/ha; for pest or weed control at 500 g/ha: 500 g ai/ha
How it was run: as §2

cocklebur = assay: Test B pre-/postemergence herbicide test; format: in vivo, Xanthium strumarium; conditions: for pest or weed control at 125 g/ha / pest or weed control at 500 g/ha: Xanthium strumarium; for pest or weed control at 125 g/ha: 125 g ai/ha; for pest or weed control at 500 g/ha: 500 g ai/ha
How it was run: (§3)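 Test chemicals in a non-phytotoxic solvent mixture with surfactant were applied preemergence to seeded species and postemergence to plants 2-18 cm tall (1- to 4-leaf stage); rice and barnyardgrass were also tested in a flooded paddy at the 2-leaf stage. Visual rating versus controls after 13-15 days in greenhouse, scale 0 (no effect) to 100 (complete control).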

giant foxtail = assay: Test B pre-/postemergence herbicide test; format: in vivo, Setaria faberi; conditions: for pest or weed control at 125 g/ha / pest or weed control at 500 g/ha: Setaria faberi, 336 h; for pest or weed control at 125 g/ha: 125 g ai/ha; for pest or weed control at 500 g/ha: 500 g ai/ha
How it was run: as §2

rice = assay: Test B flooded paddy test; format: in vivo, Oryza sativa; conditions: 1000 g ai/ha, visual rating, scale 0 to 100 (0 no effect, 100 complete control), 13 to 15 days
How it was run: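 Each value is a visual 0–100 response rating taken against controls 13 to 15 days after treatment in the greenhouse. Plants received formulated chemical postemergence at the 1- to 4-leaf stage or, in flooded paddy, at the 2-leaf stage.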

wheat = assay: Test B postemergence herbicide test; format: in vivo, Triticum aestivum; set-up: key to Wheat plant response rating: 0 = no effect, 100 = complete control
How it was run: (§4)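 Greenhouse test; postemergence application to plants at 1–4 leaves (2–18 cm); paddy species at 2 leaves; evaluated visually vs controls at 13–15 days; scale 0–100 (100 = complete control).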

blackgrass = assay: Test B postemergence herbicide test; format: in vivo, Alopecurus myosuroides
How it was run: as §1

corn = assay: Test B pre-/postemergence herbicide test; format: in vivo, Zea mays
How it was run: as §2

velvetleaf = assay: Test B pre-/postemergence herbicide test; format: in vivo, Abutilon theophrasti; conditions: for pest or weed control at 125 g/ha / pest or weed control at 500 g/ha: Abutilon theophrasti, 336 h; for pest or weed control at 125 g/ha: 125 g ai/ha; for pest or weed control at 500 g/ha: 500 g ai/ha
How it was run: as §2

large crabgrass = assay: Test B pre-/postemergence herbicide test; format: in vivo, Digitaria sanguinalis; conditions: for pest or weed control at 125 g/ha / pest or weed control at 500 g/ha: Digitaria sanguinalis; for pest or weed control at 125 g/ha: 125 g ai/ha; for pest or weed control at 500 g/ha: 500 g ai/ha
How it was run: as §2

ducksalad = assay: Test B flooded paddy test; format: in vivo, Heteranthera limosa; conditions: 1000 g ai/ha, visual rating, scale 0 to 100 (0 no effect, 100 complete control), 13 to 15 days
How it was run: as §1

barnyardgrass [2] = assay: Test B pre-/postemergence herbicide test; format: in vivo, Echinochloa crus-galli; conditions: for pest or weed control at 125 g/ha / pest or weed control at 500 g/ha: Echinochloa crus-galli; for pest or weed control at 125 g/ha: 125 g ai/ha; for pest or weed control at 500 g/ha: 500 g ai/ha
How it was run: as §3

barnyardgrass [3] = assay: Test B flooded paddy test; format: in vivo, Echinochloa crus-galli; conditions: 1000 g ai/ha, visual rating, scale 0 to 100 (0 no effect, 100 complete control), 13 to 15 days
How it was run: as §1

wild oat = assay: Test B postemergence herbicide test; format: in vivo, Avena fatua
How it was run: as §4

[4] = post-emergence, postemergence, visual rating, scale 0 (no effect) to 100 (complete control), read-out: Surinam Grass plant response rating
[5] = post-emergence, postemergence, visual rating, scale 0 (no effect) to 100 (complete control), read-out: Pigweed plant response rating
[6] = post-emergence, postemergence, visual rating, scale 0 (no effect) to 100 (complete control), read-out: Cocklebur plant response rating
[7] = post-emergence, postemergence, visual rating, scale 0 (no effect) to 100 (complete control), read-out: Foxtail, Giant plant response rating
[8] = post-emergence, postemergence, visual rating, scale 0 (no effect) to 100 (complete control), read-out: Velvetleaf plant response rating
[9] = post-emergence, postemergence, visual rating, scale 0 (no effect) to 100 (complete control), read-out: Crabgrass, Large plant response rating
[10] = post-emergence, postemergence, visual rating, scale 0 (no effect) to 100 (complete control), read-out: Barnyardgrass plant response rating
[11] = Postemergence, 250 g ai/ha, scale 0 (no effect) to 100 (complete control)
[12] = postemergence, 62 g ai/ha, scale 0 to 100

CCn1nc(C(C)(C)C)cc1C(=O)Nc1cc(C(=O)OC)ccn1 [Compound 151, methyl 2-[[[3-(1,1-dimethylethyl)-1-ethyl-1H-pyrazol-5-yl]carbonyl]amino]-4-pyridinecarboxylate]
pest or weed control at 1000 g/ha ([1]; Cyperus difformis, 336 h, read-out: Sedge, Umbrella plant response rating): 60% | pest or weed control at 125 g/ha (Surinam grass; [4]): 10% | pest or weed control at 500 g/ha (Surinam grass; [4]): 10% | pest or weed control at 500 g/ha (Surinam grass; pre-emergence, visual rating 0-100, 0 no effect, 100 complete control, read-out: Plant response rating, Surinam Grass): 10% | pest or weed control at 125 g/ha (Surinam grass; pre-emergence, preemergence, 0 to 100 scale, 0 is no effect, 100 is complete control, read-out: Plant response rating, Surinam Grass): 0% | pest or weed control at 125 g/ha (pigweed; [5]): 10% | pest or weed control at 500 g/ha (pigweed; [5]): 30% | pest or weed control at 500 g/ha (pigweed; pre-emergence, visual rating 0-100, 0 no effect, 100 complete control, read-out: Plant response rating, Pigweed): 0% | pest or weed control at 125 g/ha (pigweed; pre-emergence, preemergence, 0 to 100 scale, 0 is no effect, 100 is complete control, read-out: Plant response rating, Pigweed): 0% | pest or weed control at 125 g/ha (cocklebur; [6]): 0% | pest or weed control at 500 g/ha (cocklebur; [6]): 0% | pest or weed control at 500 g/ha (cocklebur; pre-emergence, visual rating 0-100, 0 no effect, 100 complete control, read-out: Plant response rating, Cocklebur): 0% | pest or weed control at 125 g/ha (cocklebur; pre-emergence, preemergence, 0 to 100 scale, 0 is no effect, 100 is complete control, read-out: Plant response rating, Cocklebur): 0% | pest or weed control at 125 g/ha (giant foxtail; [7]): 10% | pest or weed control at 500 g/ha (giant foxtail; [7]): 20% | pest or weed control at 500 g/ha (giant foxtail; pre-emergence, visual rating 0-100, 0 no effect, 100 complete control, read-out: Plant response rating, Foxtail, Giant): 10% | pest or weed control at 125 g/ha (giant foxtail; pre-emergence, preemergence, 0 to 100 scale, 0 is no effect, 100 is complete control, read-out: Plant response rating, Foxtail, Giant): 0% | plant injury at 1000 g/ha (rice; Oryza sativa, 336 h, read-out: Rice plant response rating): 0% | plant injury at 500 g/ha (wheat; Triticum aestivum, post-emergence, 336 h, postemergence, 500 g ai/ha, visual rating, scale 0 (no effect) to 100 (complete control), read-out: Wheat plant response rating): 20% | pest or weed control at 125 g/ha (blackgrass; Alopecurus myosuroides, post-emergence, 336 h, postemergence, 125 g ai/ha, visual rating, scale 0 (no effect) to 100 (complete control), read-out: Blackgrass plant response rating): 10% | pest or weed control at 500 g/ha (blackgrass; Alopecurus myosuroides, post-emergence, 336 h, postemergence, 500 g ai/ha, visual rating, scale 0 (no effect) to 100 (complete control), read-out: Blackgrass plant response rating): 30% | plant injury at 125 g/ha (corn; Zea mays, post-emergence, postemergence, 125 g ai/ha, visual rating, scale 0 (no effect) to 100 (complete control), read-out: Corn plant response rating): 10% | plant injury at 500 g/ha (corn; Zea mays, post-emergence, postemergence, 500 g ai/ha, visual rating, scale 0 (no effect) to 100 (complete control), read-out: Corn plant response rating): 10% | Corn plant response rating (crop injury, 0 = no effect, 100 = complete kill) at 500 g/ha (corn; Zea mays, pre-emergence, 500 g ai/ha, visual rating 0-100, 0 no effect, 100 complete control): 0% | Corn plant response rating (crop injury, 0 = no effect, 100 = complete kill) at 125 g/ha (corn; Zea mays, pre-emergence, preemergence, 125 g ai/ha, 0 to 100 scale, 0 is no effect, 100 is complete control): 0% | pest or weed control at 125 g/ha (velvetleaf; [8]): 10% | pest or weed control at 500 g/ha (velvetleaf; [8]): 20% | pest or weed control at 500 g/ha (velvetleaf; pre-emergence, visual rating 0-100, 0 no effect, 100 complete control, read-out: Plant response rating, Velvetleaf): 0% | pest or weed control at 125 g/ha (velvetleaf; pre-emergence, preemergence, 0 to 100 scale, 0 is no effect, 100 is complete control, read-out: Plant response rating, Velvetleaf): 0% | pest or weed control at 125 g/ha (large crabgrass; [9]): 0% | pest or weed control at 500 g/ha (large crabgrass; [9]): 0% | pest or weed control at 500 g/ha (large crabgrass; pre-emergence, visual rating 0-100, 0 no effect, 100 complete control, read-out: Plant response rating, Crabgrass, Large): 10% | pest or weed control at 125 g/ha (large crabgrass; pre-emergence, preemergence, 0 to 100 scale, 0 is no effect, 100 is complete control, read-out: Plant response rating, Crabgrass, Large): 0% | pest or weed control at 1000 g/ha (ducksalad; Heteranthera limosa, 336 h, read-out: Ducksalad plant response rating): 0% | pest or weed control at 125 g/ha (barnyardgrass [2]; [10]): 0% | pest or weed control at 500 g/ha (barnyardgrass [2]; [10]): 10% | pest or weed control at 500 g/ha (barnyardgrass [2]; pre-emergence, visual rating 0-100, 0 no effect, 100 complete control, read-out: Plant response rating, Barnyardgrass): 10% | pest or weed control at 125 g/ha (barnyardgrass [2]; pre-emergence, preemergence, 0 to 100 scale, 0 is no effect, 100 is complete control, read-out: Plant response rating, Barnyardgrass): 0% | pest or weed control at 1000 g/ha (barnyardgrass [3]; Echinochloa crus-galli, 336 h, read-out: Barnyardgrass plant response rating): 0% | pest or weed control at 125 g/ha (wild oat; Avena fatua, post-emergence, 336 h, postemergence, 125 g ai/ha, visual rating, scale 0 (no effect) to 100 (complete control), read-out: Oat, Wild plant response rating): 10% | pest or weed control at 500 g/ha (wild oat; Avena fatua, post-emergence, 336 h, postemergence, 500 g ai/ha, visual rating, scale 0 (no effect) to 100 (complete control), read-out: Oat, Wild plant response rating): 30%

CCNC(=O)c1ccnc(NC(=O)c2cc(C(C)(C)C)nn2CC)c1 [Compound 152]
Sedge, Umbrella plant response rating [1]: 90 | Surinam Grass plant response rating (Surinam grass; [11]): 40 | Surinam Grass plant response rating (Surinam grass; [12]): 30 | Pigweed plant response rating (pigweed; [11]): 90 | Pigweed plant response rating (pigweed; [12]): 50 | Cocklebur plant response rating (cocklebur; [11]): 90 | Cocklebur plant response rating (cocklebur; [12]): 60 | Foxtail, Giant plant response rating (giant foxtail; [11]): 20 | Foxtail, Giant plant response rating (giant foxtail; [12]): 10 | Rice plant response rating (rice): 70 | Wheat plant response rating (wheat; 250 g ai/ha, scale 0 to 100, 0 no effect, 100 complete control, preemergence): 100 | Wheat plant response rating (wheat; [11]): 10 | Wheat plant response rating (wheat; [12]): 10 | Blackgrass plant response rating (blackgrass; [11]): 20 | Blackgrass plant response rating (blackgrass; [12]): 20 | Corn plant response rating (corn; [11]): 30 | Corn plant response rating (corn; [12]): 20 | Velvetleaf plant response rating (velvetleaf; [11]): 50 | Velvetleaf plant response rating (velvetleaf; [12]): 50 | Crabgrass, Large plant response rating (large crabgrass; [11]): 20 | Crabgrass, Large plant response rating (large crabgrass; [12]): 10 | Ducksalad plant response rating (ducksalad): 80 | Barnyardgrass plant response rating (barnyardgrass [2]; [11]): 40 | Barnyardgrass plant response rating (barnyardgrass [2]; [12]): 30 | Barnyardgrass plant response rating (barnyardgrass [3]): 80 | Oat, Wild plant response rating (wild oat; [11]): 20 | Oat, Wild plant response rating (wild oat; [12]): 10

Source: patent publication US20060069132A1, “Azolecarboxamide herbicides” (priority 2004, published 2006)
